Measured values as given in patent US11464770B2, “Anticancer pharmaceutical composition” (NATIONAL CANCER CENTER, priority 2016, dated 2022).
pIC50: −log10 of the molar value. Like-named read-outs stand apart in the source and are kept apart here.

What was measured:
liver cancer cell lines = assay: Cell based assay, cell viability (CellTiter-Glo), liver cancer cell lines; settings: Homo sapiens, SK-HEP1; SK-HEP-1 cell line
Procedure, shortened: (§1)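 Read-out is ATP-dependent luminescence (CellTiter-Glo) taken after 72 h of exposure to compound at final concentrations from 0 to 2 μM. Cells were plated 24 h beforehand.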

[1] = system: lung cancer cell lines (e.g. NCI-H23, NCI-H1229); assay: Cell based assay, cell viability (CellTiter-Glo), lung cancer cell lines; settings: Homo sapiens
Procedure, shortened: as §1

[2] = A549 cells, 72 hours treatment, CellTiter-Glo, read-out: IC50, lung cancer cell line A549
[3] = DMS 114 cells, 72 hours treatment, CellTiter-Glo, read-out: IC50, lung cancer cell line DMS 114
[4] = MRC-5 cells, 72 hours treatment, CellTiter-Glo, read-out: IC50
[5] = NCI-H23 cells, 72 hours treatment, CellTiter-Glo, read-out: IC50, lung cancer cell line NCI-H23
[6] = NCI-H460 cells, 72 hours treatment, CellTiter-Glo, read-out: IC50, lung cancer cell line NCI-H460
[7] = NCI-H522 cells, 72 hours treatment, CellTiter-Glo, read-out: IC50, lung cancer cell line NCI-H522
[8] = NCI-H1299 cells, 72 hours treatment, CellTiter-Glo, read-out: IC50, lung cancer cell line NCI-H1299
[9] = NCI-H1437 cells, 72 hours treatment, CellTiter-Glo, read-out: IC50, lung cancer cell line NCI-H1437
[10] = Lung cancer cell line A549, 72 hours, cell viability (CellTiter-Glo), read-out: IC50, A549
[11] = Lung cancer cell line DMS 114, 72 hours, cell viability (CellTiter-Glo), read-out: IC50, DMS 114
[12] = Lung cancer cell line NCI-H23, 72 hours, cell viability (CellTiter-Glo), read-out: IC50, NCI-H23
[13] = Lung cancer cell line NCI-H460, 72 hours, cell viability (CellTiter-Glo), read-out: IC50, NCI-H460
[14] = Lung cancer cell line NCI-H522, 72 hours, cell viability (CellTiter-Glo), read-out: IC50, NCI-H522
[15] = Lung cancer cell line NCI-H1299, 72 hours, cell viability (CellTiter-Glo), read-out: IC50, NCI-H1299
[16] = Lung cancer cell line NCI-H1437, 72 hours, cell viability (CellTiter-Glo), read-out: IC50, NCI-H1437
[17] = MRC-5 (listed under Lung cancer cell line), 72 hours, cell viability (CellTiter-Glo), read-out: IC50, MRC-5

Row | pIC50 (liver cancer cell lines) | pIC50 [1, 2] | pIC50 [1, 3] | pIC50 [1, 5] | pIC50 [1, 6] | pIC50 [1, 7] | pIC50 [1, 8] | pIC50 [1, 9] | pIC50 [1, 10] | pIC50 [1, 11] | pIC50 [1, 12] | pIC50 [1, 13] | pIC50 [1, 14] | pIC50 [1, 15] | pIC50 [1, 16] | SMILES | pIC50 [1, 4] | pIC50 [1, 17]
1 | 5.71 | < 5.70 | < 5.70 | 5.87 | < 5.70 | 5.74 | 5.74 | < 5.00 | – | – | – | – | – | – | – | Cc1cc(C[S+]([O-])c2[nH]c3c(Br)ccc(Cl)c3c(=O)c2C(=O)C2CC2)no1 (stereo not drawn) [Compound 96, 8-bromo-5-chloro-3-(cyclopropanecarbonyl)-2-(((5-methylisoxazol-3-yl)methyl)sulfinyl)quinolin-4(1H)-one] | 5.74 | –
2 | 5.97 | < 5.70 | < 5.70 | 5.96 | 5.84 | 5.88 | 5.83 | < 5.00 | – | – | – | – | – | – | – | Cc1cc(C[S+]([O-])c2[nH]c3c(Cl)ccc(Cl)c3c(=O)c2C(=O)C2CC2)no1 (stereo not drawn) [Compound 97, 5,8-dichloro-3-(cyclopropanecarbonyl)-2-(((5-methylisoxazol-3-yl)methyl)sulfinyl)quinolin-4(1H)-one] | 5.84 | –
3 | 5.92 | < 5.70 | < 5.70 | 5.79 | 5.77 | < 5.70 | 5.74 | < 5.00 | – | – | – | – | – | – | – | CC(=O)c1c([S+]([O-])Cc2ccc(C#N)s2)[nH]c2c(Br)ccc(Cl)c2c1=O (stereo not drawn) [Compound 98, 5-(((3-acetyl-8-bromo-5-chloro-4-oxo-1,4-dihydroquinolin-2-yl)sulfinyl)methyl)thiophene-2-carbonitrile] | < 5.70 | –
4 | 5.97 | – | – | – | – | – | – | – | 5.89 | < 5.70 | 6.04 | 5.93 | 5.95 | 5.97 | < 5.00 | CC(=O)c1c([S+]([O-])Cc2ccc(-n3cccn3)nc2)[nH]c2c(Br)ccc(Cl)c2c1=O (stereo not drawn) [Compound 99, 2-(((6-(1H-pyrazol-1-yl)pyridin-3-yl)methyl)sulfinyl)-3-acetyl-8-bromo-5-chloroquinolin-4(1H)-one] | – | 5.95
5 | < 5.70 | – | – | – | – | – | – | – | < 5.70 | < 5.70 | < 5.70 | < 5.70 | < 5.70 | < 5.70 | < 5.00 | CC(=O)c1c([S+]([O-])Cc2ccc(N)nc2)[nH]c2c(Br)ccc(Cl)c2c1=O (stereo not drawn) [Compound 100, 3-acetyl-2-(((6-aminopyridin-3-yl)methyl)sulfinyl)-8-bromo-5-chloroquinolin-4(1H)-one] | – | < 5.70
6 | < 5.70 | – | – | – | – | – | – | – | < 5.70 | < 5.70 | 5.88 | < 5.70 | < 5.70 | < 5.70 | < 5.00 | O=C(c1c([S+]([O-])Cc2ccc(SC(F)(F)F)cc2)[nH]c2c(Br)ccc(Cl)c2c1=O)C1CC1 (stereo not drawn) [Compound 101, 8-bromo-5-chloro-3-(cyclopropanecarbonyl)-2-((4-((trifluoromethyl)thio)benzyl)sulfinyl)quinolin-4(1H)-one] | – | < 5.70
7 | < 5.70 | – | – | – | – | – | – | – | 5.79 | < 5.70 | 5.90 | 5.84 | 5.83 | 5.95 | < 5.00 | CC(=O)c1c([S+]([O-])Cc2ccc(C(F)(F)F)nc2C)[nH]c2c(Br)ccc(Cl)c2c1=O (stereo not drawn) [Compound 102, 3-acetyl-8-bromo-5-chloro-2-(((2-methyl-6-(trifluoromethyl)pyridin-3-yl)methyl)sulfinyl)quinolin-4(1H)-one] | – | 5.84
8 | < 5.70 | – | – | – | – | – | – | – | < 5.70 | < 5.70 | < 5.70 | < 5.70 | < 5.70 | < 5.70 | < 5.00 | CC(=O)c1c([S+]([O-])Cc2ccc(NS(C)(=O)=O)cc2)[nH]c2c(Br)ccc(Cl)c2c1=O (stereo not drawn) [Compound 103, N-(4-(((3-acetyl-8-bromo-5-chloro-4-oxo-1,4-dihydroquinolin-2-yl)sulfinyl)methyl)phenyl)methane-sulfonamide] | – | < 5.70
9 | 5.82 | – | – | – | – | – | – | – | 5.77 | < 5.70 | 5.90 | 5.82 | 5.85 | 5.93 | < 5.00 | CC(=O)c1c([S+]([O-])Cc2ccc(Cl)nc2)[nH]c2c(Br)ccc(Cl)c2c1=O (stereo not drawn) [Compound 104, 3-acetyl-8-bromo-5-chloro-2-(((6-chloropyridin-3-yl)methyl)sulfinyl)quinolin-4(1H)-one] | – | 5.79
10 | < 5.70 | – | – | – | – | – | – | – | < 5.70 | < 5.70 | < 5.70 | < 5.70 | < 5.70 | < 5.70 | < 5.00 | COCCNc1ccc(C[S+]([O-])c2[nH]c3c(Br)ccc(Cl)c3c(=O)c2C(C)=O)cn1 (stereo not drawn) [Compound 105, 3-acetyl-8-bromo-5-chloro-2-(((6-((2-methoxyethyl)amino)pyridin-3-yl)methyl)sulfinyl)quinolin-4(1H)-one] | – | < 5.70
11 | < 5.70 | – | – | – | – | – | – | – | < 5.70 | < 5.70 | < 5.70 | < 5.70 | < 5.70 | < 5.70 | < 5.00 | CC(=O)c1c([S+]([O-])Cc2nonc2C)[nH]c2c(Br)ccc(Cl)c2c1=O (stereo not drawn) [Compound 106, 3-acetyl-8-bromo-5-chloro-2-(((4-methyl-1,2,5-oxadiazol-3-yl)methyl)sulfinyl)quinolin-4(1H)-one] | – | < 5.70
12 | < 5.70 | – | – | – | – | – | – | – | < 5.70 | < 5.70 | < 5.70 | < 5.70 | < 5.70 | < 5.70 | < 5.00 | CC(=O)c1c([S+]([O-])Cc2cnc3[nH]ccc3c2)[nH]c2c(Br)ccc(Cl)c2c1=O (stereo not drawn) [Compound 107, 2-(((1H-pyrrolo[2,3-b]pyridin-5-yl)methyl)sulfinyl)-3-acetyl-8-bromo-5-chloroquinolin-4(1H)-one] | – | < 5.70
